Values quoted from earlier work as cited in patent publication US20100196504A1, “SYNERGISTIC ACTIVE PREPARATIONS COMPRISING 1,2-DECANEDIOL AND FURTHER ANTIMICROBIAL ACTIVE COMPOUNDS” (SYMRISE GmbH & Co. KG, priority 2007, published 2010).

Assays:
[1] = system: Staphylococcus epidermidis; conditions: microorganism causing body odour
Corynebacterium acnes = conditions: microorganism causing body odour
Propionibacterium acnes = conditions: microorganism causing acne

Measured: antimicrobial activity

CCCCCCCCC(O)CO (stereo not drawn) [1,2-decanediol]
antimicrobial activity: all assays above
